Entries after “also recorded” stand apart in the source; their conditions may differ. Where two headings read alike, the source gives them in different places.

The target in assay [1] is T1, rat GABAA α1β2γ2s receptor expressed in HEK 293 cells (HEKGABA) (Rattus norvegicus, UniProt P18508+P62813+P63138). Kind of assay: Whole-cell electrophysiology recording of GABAA current (IGABA, I/V curve) on HEKGABA cells. The format is cell-based. The following applies: GABA 3 μM or muscimol 1 μM, 30 s. The text has this: HEKGABA cells: HEK 293 cells stably expressing configurations of rat GABAA receptors (HEKGABA) were generously given by Hoffmann-LaRoche (Basel, Switzerland). Briefly, cDNAs encoding rat GABAA α1, β2 and γ2s subunits were subcloned into the expression vectors pIRESpuro2, pIRESneo2 and pIREShygro2 vectors (Clontech, Mountain View, Calif.), respectively. The pIRES/GABAA α1, β2, γ2s, constructs were sequenced to confirm their nucleotide sequence and then cotransfected into HEK 293 cells at a ratio of 1:1:2 (plasmid mass ratio) using the lipofectamine 2000 kit according to the manufacturer's instructions (Invitrogen, Carlsbad, Calif., USA). […] Cell colonies were isolated and expression of the GABAA α1β2γ2s receptor was determined by [^3H] flumazenil binding.
T1 sequence (P63138 25-474): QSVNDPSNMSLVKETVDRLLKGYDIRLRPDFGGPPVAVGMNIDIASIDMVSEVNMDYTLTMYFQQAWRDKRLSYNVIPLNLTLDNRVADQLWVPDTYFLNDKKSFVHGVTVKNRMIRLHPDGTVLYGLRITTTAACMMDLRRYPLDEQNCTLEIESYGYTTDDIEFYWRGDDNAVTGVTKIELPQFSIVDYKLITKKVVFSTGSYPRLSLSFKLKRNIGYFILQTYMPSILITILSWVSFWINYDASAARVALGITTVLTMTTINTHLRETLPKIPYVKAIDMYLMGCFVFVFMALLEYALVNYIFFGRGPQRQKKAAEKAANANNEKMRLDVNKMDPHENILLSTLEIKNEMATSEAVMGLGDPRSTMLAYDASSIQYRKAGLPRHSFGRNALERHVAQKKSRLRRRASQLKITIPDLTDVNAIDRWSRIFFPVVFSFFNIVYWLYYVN
T1 sequence (P18508 39-466): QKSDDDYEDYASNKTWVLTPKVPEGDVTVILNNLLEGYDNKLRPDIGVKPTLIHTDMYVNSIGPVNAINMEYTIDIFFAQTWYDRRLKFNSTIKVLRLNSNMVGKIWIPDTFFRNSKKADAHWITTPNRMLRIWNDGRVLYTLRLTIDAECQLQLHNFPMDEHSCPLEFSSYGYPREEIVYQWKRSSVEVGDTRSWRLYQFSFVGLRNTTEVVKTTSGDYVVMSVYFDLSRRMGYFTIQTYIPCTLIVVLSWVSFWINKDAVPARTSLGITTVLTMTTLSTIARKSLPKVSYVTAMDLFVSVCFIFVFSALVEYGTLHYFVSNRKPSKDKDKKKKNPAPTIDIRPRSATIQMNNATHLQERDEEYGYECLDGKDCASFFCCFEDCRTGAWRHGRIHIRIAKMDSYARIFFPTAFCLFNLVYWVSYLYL
T1 sequence (P62813 28-455): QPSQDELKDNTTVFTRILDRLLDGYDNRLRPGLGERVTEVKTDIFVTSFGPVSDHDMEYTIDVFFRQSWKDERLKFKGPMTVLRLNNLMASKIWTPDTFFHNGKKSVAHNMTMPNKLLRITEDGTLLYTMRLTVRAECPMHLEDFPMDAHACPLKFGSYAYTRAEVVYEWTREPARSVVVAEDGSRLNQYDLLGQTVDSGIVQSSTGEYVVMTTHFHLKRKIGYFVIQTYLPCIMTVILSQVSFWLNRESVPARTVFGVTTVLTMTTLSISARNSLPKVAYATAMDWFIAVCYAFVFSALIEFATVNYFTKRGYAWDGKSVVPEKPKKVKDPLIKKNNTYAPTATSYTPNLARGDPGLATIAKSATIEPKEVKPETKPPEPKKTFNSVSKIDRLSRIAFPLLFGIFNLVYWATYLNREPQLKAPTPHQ
Electrophysiology recording: All cultures were perfused in an artificial cerebrospinal fluid (ACSF) containing (in mM): NaCl 150, KCl 3, D-glucose, 10 HEPES 10, CaCl2 3, and mM MgCl2. […] They were recorded with pipettes containing 95 mM potassium-gluconate, 40 mM KCl, 10 mM Hepes, 2 mM MgCl2 (pH 7.3). […]
Offline analysis: The electrophysiological and optical recordings were analysed by using MATLAB 7.6 (Mathworks Software, Natick, Mass.) and all curves have been fitted by using ORIGIN 7.5 (Microcal Software, Northampton, Mass.). […]

In assay [2] the target is T1, rat GABAA α1β2γ2s receptor expressed in HEK 293 cells (HEKGABA). Format: cell-based. Particulars: −100 mV, picrotoxin 30 μM; for effect on phase signal in HEKGABA (in words): GABA 3 μM, muscimol 1 μM, 30 s. An excerpt: HEKGABA cells: HEK 293 cells stably expressing configurations of rat GABAA receptors (HEKGABA) were generously given by Hoffmann-LaRoche (Basel, Switzerland). Briefly, cDNAs encoding rat GABAA α1, β2 and γ2s subunits were subcloned into the expression vectors pIRESpuro2, pIRESneo2 and pIREShygro2 vectors (Clontech, Mountain View, Calif.), respectively. The pIRES/GABAA α1, β2, γ2s, constructs were sequenced to confirm their nucleotide sequence and then cotransfected into HEK 293 cells at a ratio of 1:1:2 (plasmid mass ratio) using the lipofectamine 2000 kit according to the manufacturer's instructions (Invitrogen, Carlsbad, Calif., USA). Transfected cells were grown in minimal essential medium (Invitrogen) supplemented with 10% fetal calf serum (Invitrogen), 20 mM HEPES (Invitrogen) and 100 U/ml penicillin/100 μg/ml streptomycin (Invitrogen) for 48 hours and then, the cells were transferred to the selection medium containing 0.3 μg/ml puromycin (Clontech, Mountain View, Calif., USA), 300 μg/ml hygromycin B (Roche Diagnostics, Mannheim, Germany) and 200 μg/ml G418 (Invitrogen) for the generation of stable cell lines. Cell colonies were isolated and expression of the GABAA α1β2γ2s receptor was determined by [^3H] flumazenil binding.
(§1) Electrophysiology recording: All cultures were perfused in an artificial cerebrospinal fluid (ACSF) containing (in mM): […] (pH 7.4; Room temperature). For some experiments performed on HEK cells, picrotoxin (30 μM, Tocris) was added to the ACSF. […] Whole-cell recordings were made, and signals were amplified by using Multiclamp 700B amplifiers (Axon Instruments, Union City, Calif.) and digitized by means of an ITC-1600 interface (Instrutech, Great Neck, N.Y.) to a PC computer running Igor Pro (Wavemetrics, Portland, Oreg.). All currents (sampling interval, 5 kHz) were low-pass filtered (2 kHz). They were recorded with pipettes containing 95 mM potassium-gluconate, 40 mM KCl, 10 mM Hepes, 2 mM MgCl2 (pH 7.3). For some experiments, 95 mM potassium-gluconate was substituted with 95 mM KCl to reach a final concentration of [Cl^−]intrapip, to 139 mM. The pipettes were pulled with a DMZ universal puller.
Imaging: Holograms are acquired with a DHMT 1000 (Lyncée Tech SA, PSE-EPFL). A laser diode produces the coherent light (λ=683 nm) which is divided by a beam splitter into a reference wave and an object wave. The object wave diffracted by the specimen is collected by a microscope objective and interferes with a reference beam to produce the hologram recorded by the CCD camera. Frequency of hologram acquisition is 0.2 Hz. Reconstruction of the original image from the hologram is numerically achieved by a computer. The reconstruction algorithm provides simultaneous amplitude and quantitative phase images of the cells (Koala software).
Offline analysis: The electrophysiological and optical recordings were analysed by using MATLAB 7.6 (Mathworks Software, Natick, Mass.) and all curves have been fitted by using ORIGIN 7.5 (Microcal Software, Northampton, Mass.). […] All data are presented as means±SEM. Student's t-test (paired or unpaired) to determine statistical significance (p<0.05).

The subject of a further assay is HEKnorm. Kind of assay: DHM phase signal recording on non-transfected HEK cells (HEKnorm). Particulars: −100 mV, GABA 3 μM, 30 s. Format: cell-based. How it is done:
as §1
Imaging: Holograms are acquired with a DHMT 1000 (Lyncée Tech SA, PSE-EPFL). […] The object wave diffracted by the specimen is collected by a microscope objective and interferes with a reference beam to produce the hologram recorded by the CCD camera. […] The reconstruction algorithm provides simultaneous amplitude and quantitative phase images of the cells (Koala software).

The test system of assay [3] is cortical neurons in primary culture. Kind of assay: DHM multisite phase recording on unpatched cortical neurons in primary culture. The following applies: GABA 100 μM, 30 s. Format: cell-based, mice. The method, then: Neuronal cell cultures: Primary cultures of cortical neurons were prepared from E17 OF1 mice embryos. Briefly, embryos were decapitated and brains removed and placed in PBS-glucose. Cortex was removed under a dissecting microscope and collected in a small Petri dish in PBS-glucose. Cell dissociation was obtained by gentle trituration with a fire-polished Pasteur pipette in Neurobasal medium supplemented with B27 and GlutaMAX (Invitrogen). Cells were plated at an average density of 15000 cells/cm^2 in supplemented Neurobasal medium on poly-ornithine coated glass coverslips (20 mm Ø). After 3-4 h, coverslips were transferred to dishes containing glial cell monolayers in supplemented Neurobasal medium. Neurons were maintained at 37° C. in a humidified atmosphere of 95% air/5% CO2 and were used after 21-35 days in vitro (DIV).
Imaging: Holograms are acquired with a DHMT 1000 (Lyncée Tech SA, PSE-EPFL). A laser diode produces the coherent light (λ=683 nm) which is divided by a beam splitter into a reference wave and an object wave. The object wave diffracted by the specimen is collected by a microscope objective and interferes with a reference beam to produce the hologram recorded by the CCD camera. Frequency of hologram acquisition is 0.2 Hz. Reconstruction of the original image from the hologram is numerically achieved by a computer. The reconstruction algorithm provides simultaneous amplitude and quantitative phase images of the cells (Koala software). It is important to note that an extensive quality control of the DHM technique has been published by Rappaz et al “Comparative study of human erythrocytes by digital holographic microscopy, confocal microscopy, and impedance volume analyzer” Cytom Part A 73A, 895-903 (2008).
Neurons also presented heterogeneous phase responses.

Consider `NCc1cc(=O)[nH]o1` [muscimol, Muscimol], for which the “reversal potential for Cl− (ECl) from I/V curve” value was −27 mV in assay [1] ([Cl−]intrapip 40 mM (44 mM elsewhere in the source)) and −4 mV in assay [1] ([Cl−]intrapip 139 mM). Besides, the “effect on phase signal in HEKGABA (in words)” value is on record as “mimicked the effect of GABA” in assay [2] and “mimicked” in assay [2] (listed as Muscimol).
For the compound picrotoxin, the “change of phase response evoked by GABA in presence of antagonist” value in assay [2] (GABA 3 μM 30 s) was −82±17%. The “effect on phase signal in HEKGABA (in words)” value in assay [2] was “reduces the phase shift”; in assay [2] (listed as Picrotoxin), “blocked”.
Take `NCCCC(=O)O` [GABA]: in the assay on HEKnorm, the “effect on phase signal in HEKnorm (in words)” value is reported as “no effect; also recorded: ineffective” and the “Δφ phase signal in HEKnorm” value is given as 0.33±0.55 °. The “phase response, neurons with increase of phase signal” value in assay [3] (3 of 46 cells) was 1.16+/−0.47 °. Moreover, the “phase response, neurons with decrease of phase signal” value in assay [3] (13 of 46 cells) is given as −2.55+/−0.29 °. Moreover, in assay [3] (30 of 46 cells), the “phase response, neurons with modest or no detectable signal” value is recorded as −0.16+/−0.2 °.
